Residue numbers refer to the chain shown, from its start. Read-outs that look alike come from different tables or passages of the source.
Assays:
E234G HYPE = target: T1, E234G HYPE (Homo sapiens, UniProt Q9BVA6, E234G); assay: Fluorescence polarization (FP) microplate autoAMPylation assay with Fl-ATP, E234G HYPE inhibitor HTS, cherrypick validation and concentration-response; type: biochemical; conditions: for inhibition at 10 µM / % Inh. Cherry-pick / % Inh. HTS: 10 μM compound; for Mean % Inh.: mean of HTS and cherrypick
T1 construct: Δ102 (aa 103-458) HYPE constructs (WT, E234G, and E234G/H363A); His6-SUMO (cleaved yes); made in house; host or cells: E. coli BL21-DE3-RILP
T1 sequence (Q9BVA6 103-458 E234G): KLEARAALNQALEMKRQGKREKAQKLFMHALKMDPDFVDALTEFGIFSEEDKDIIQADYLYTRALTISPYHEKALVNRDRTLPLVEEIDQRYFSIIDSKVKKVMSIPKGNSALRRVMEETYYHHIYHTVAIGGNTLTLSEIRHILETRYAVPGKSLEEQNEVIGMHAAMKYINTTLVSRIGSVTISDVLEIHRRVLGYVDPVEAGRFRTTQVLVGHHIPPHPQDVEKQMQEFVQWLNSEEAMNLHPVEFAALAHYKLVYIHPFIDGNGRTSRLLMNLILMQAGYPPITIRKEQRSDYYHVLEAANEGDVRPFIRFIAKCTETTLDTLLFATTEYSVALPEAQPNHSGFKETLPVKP
Procedure: Buffer optimization experiments were performed by incubating 0.4 μM of Δ102 HYPE enzyme with 25 nM Fl-ATP (final concentrations) in HTS buffer (50 mM HEPES (pH 7.5), 1 mM MgCl2, 0.1% Triton X-100, 1% DMSO) in the dark at room temperature for 10 min in 384-well black bottom, black wall microplates (20 μL reaction volume). Where specified, 1 mM MgCl2 was replaced with an equivalent concentration of MnCl2, or 0.1% Triton X-100 was replaced with 0.05% or 0.01% Trion X-100. Microplates were snap centrifuged at 1000 g for 10 sec. Microplates were loaded onto a BioTek BioStack NEO2 plate-reader and assessed for fluorescence polarization with 485/530 nm filters and a 55/50 gain adjustment.
A Multidrop 384 reagent dispenser (ThermoFisher) was used to add 0.4 μM HYPE, then 25 nM Fl-ATP (final concentrations) to 384-well black/black microplates (20 μL reaction volume). Both enzyme and nucleotide were dissolved in HTS Buffer. AMPylation Reactions were incubated for 10 min at room temperature in the dark. Microplates were snap centrifuged at 1000 g for 10 sec, then transferred to BioTek BioStack NEO2 plate-reader. Reactions were assessed for fluorescence polarization with 485/530 nm filters and a 55/50 gain adjustment. Z′, S/B, and CV values were determined by fitting the data to Eq. 1, 2, and 3, respectively,
An Echo Liquid Handler (Labcyte) was used to transfer 200 nL of DMSO-dissolved compounds via acoustic-coupled ejection from 10 mM source plates into 384-well black, flat-bottom, black-walled microplates, for a final compound concentration of 10 μM. Compounds were sourced from the following libraries: DIVERset (Chembridge), CNS-Set (Chembridge). The compounds went into columns 3-22 of each plate, while columns 1, 2, 23, and 24 were reserved for equivalent volume of 100% DMSO controls.
A Multidrop 384 reagent dispenser was used to pipette 0.4 μM of WT HYPE (final concentration) dissolved in HTS Buffer into columns 1-22 of the activator plates, and columns 1 and 2 of the inhibitor plates as positive controls. 0.4 μM of E234G HYPE was similarly added to columns 3-24 of the inhibitor plates, and columns 23 and 24 of the […]. Enzymes were then incubated with either compounds or DMSO for 10 min at room temperature.
A Multidrop 384 reagent dispenser was used to pipette 25 nM of Fl-ATP (final concentration) into all wells of each plate, giving a final reaction volume of 20 μL. Plates were then incubated for 10 min at room temperature in the dark, followed by a snap centrifugation at 1000 g for 10 sec. Microplates were loaded onto BioTek BioStack stacker and read in succession for fluorescence polarization with 485/530 nm filters and a 55/50 gain adjustment. Fluorescence polarization values were converted to fractional activation (FA) or fractional inhibition FI) values according to Eq. (3) or (4), respectively,
[formula] [formula] • where μp and μn are the means of the positive (E234G HYPE) and negative (WT HYPE) controls, respectively; and x is the measured value of fluorescence polarization.
Microplate “cherrypicking” validations were performed as described above.
A Multidrop 384 reagent dispenser was used to pipette 0.4 μM of WT or E234G HYPE (final concentrations) dissolved in HTS Buffer into designated microplate wells. 10 μM of DMSO-dissolved compounds (final concentrations) or equivalent volume of 100% DMSO were manually pipetted into their specified wells. Enzymes were incubated with compounds or DMSO for 10 min at room temperature. Reagent dispenser was then used to pipette 25 nM of Fl-ATP (final concentration) into each well, followed by a 10 min incubation at room temperature in the dark. Plates were snap centrifuged at 1000 g for 10 sec, then transferred to BioTek BioStack NEO2 plate-reader. Reactions were assessed for fluorescence polarization with 485/530 nm filters and a 55/50 gain adjustment. EC50 and IC50 values were determined by fitting polarization values to Eq. (5) and (6), respectively, […]

HeLa cells = assay: MTT cell viability assay, HeLa; type: cell-based, human; conditions: HeLa, 48 hr
Procedure: The cell lines were procured from ATCC (American Type Culture Collection) and cultured in DMEM (Dulbecco's Modified Eagle Medium) supplemented with 10% FBS (fetal bovine serum) without antibiotics. Cells were grown and maintained in a humidified incubator at 37° C. with 5% CO2. For the MTT assay, cells were trypsinized and harvested at ˜80-90% confluency and seeded in 96 well plates at a density of 1×10^4 cells per well. The seeded cells were incubated overnight and treated with 1 μM, 3 μM, 5 μM, 7 μM, 10 μM, 20 μM, 30 μM or 50 μM (final concentration) of DMSO-dissolved compound for 48 hr. To rule out vehicle induced toxicity, only 0.5% of final DMSO concentration was added to the cells. Post-incubation, the compound treatment was removed and replaced with 0.5 mg/ml (final concentration) of freshly prepared MTT solution. After incubating for 3.5 hr at 37° C., 5% CO2 humidified incubator, MTT was carefully removed without aspirating the formazan crystals and replaced with equivalent volume of DMSO to dissolve the formazan crystals. The plates were then read using a multi-plate reader at 570 nm. The absorbance was recorded and % viability was calculated according to the following equation:
[formula] • where, Abt is the absorbance of compound treated cells and Abc is the absorbance of control cells.

HYPE = conditions: pilot screen of nearly 10,000 compounds; cited from earlier work
WT HYPE = target: T2, WT HYPE (Homo sapiens, UniProt Q9BVA6); assay: Fluorescence in-gel autoAMPylation assay with WT HYPE and Fl-ATP; type: biochemical; conditions: 10 μM compound, versus DMSO control
T2 construct: Δ102 (aa 103-458) HYPE constructs (WT, E234G, and E234G/H363A); His6-SUMO (cleaved yes); made in house; host or cells: E. coli BL21-DE3-RILP
T2 sequence (Q9BVA6 103-458): T1 sequence (Q9BVA6 103-458 E234G) with G132E
Procedure: 1 μM of WT HYPE (final concentration) was preincubated with 10 μM DMSO-dissolved compound (final concentration) or equivalent volume of 100% DMSO at room temperature for 10 min. Reactions were run for 20 hr at 30° C. in the dark and began with the addition of 1 μM Fl-ATP (final concentration). Alternatively, E234G HYPE AMPylation reactions were run at 10 min due to its hyperactivity. All other parameters were held constant. All reactions were performed HTS Buffer (50 mM HEPES, 1 mM MgCl2, 0.1% Triton X-100, pH 7.50). All reactions were quenched with 4×SDS loading dye, boiled for 5 min at 95° C., and samples were run on 12% SDS-PAGE gels. Gels were imaged on a Typhoon 9500 FLA imager (General Electric) for fluorescence at 473 nm. Imaged gels were then stained with Coomassie Brilliant Blue, destained, and imaged for protein concentration. Where specified, 5 μM of T229A BiP (final concentration) was added to reactions before the addition of compound.

[1] = target: T3, IbpA-Fic2 (IbpA-2) AMPylation of Cdc42 (Histophilus somni, UniProt Q06277); assay: Radioactive in-gel AMPylation assay with WT IbpA-Fic2, Cdc42 and α-32P-ATP (cross reactivity); type: biochemical; conditions: 10 μM compound, versus DMSO control
T3 construct: a construct solely containing the second of the two domains, IbpA-2; made in house
T3 sequence (Q06277 3640-3777): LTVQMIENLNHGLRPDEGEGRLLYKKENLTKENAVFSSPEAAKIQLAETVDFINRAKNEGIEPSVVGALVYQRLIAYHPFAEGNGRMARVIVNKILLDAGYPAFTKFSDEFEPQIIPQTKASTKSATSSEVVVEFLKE
Procedure: 1 μM of HYPE (final concentration) and (where specified) 5 μM of T229A BiP (final concentration) were preincubated with 10 μM DMSO-dissolved compound (final concentration) or equivalent volume of 100% DMSO at room temperature for 10 min in HTS Buffer. Reactions were run for 10 min at 30° C. and began with the addition of 0.01 μCi/μL α-32P-ATP (final concentration). All reactions were performed according to our previously described protocol for in vitro radioactive AMPylation assays19. Where specified, 5 μM of T229A BiP (final concentration) was added to reactions before the addition of compound.
All bacterial Fic specificity assays were conducted with 1 μM GST-tagged IbpA-Fic2, 5 μM GST-tagged Q61L Cdc42, and 0.01 μCi/μL α-32P-ATP (all final concentrations). All other reaction parameters were kept as per HYPE radiolabeled in-gel AMPylation assays.

[2] = cherrypick validation, same FP assay, read-out: % Inh. Cherry-pick
[3] = initial HTS, normalized to WT and E234G HYPE DMSO controls, read-out: % Inh. HTS
[4] = cherrypick validation, same FP assay
[5] = initial HTS, normalized to WT and E234G HYPE DMSO controls

Structure (SMILES) | inhibition at 10 µM (E234G HYPE; [2]) | inhibition at 10 µM (E234G HYPE; [3]) | Mean % Inh. (E234G HYPE) | other results
O=C1Nc2ccc(Br)cc2C12NN=C(c1ccccc1)S2 (stereo not shown) [Compound I2.7] | 34.2% | 20.9% | 27.6% | –
Cc1nn(-c2nc3ccccc3[nH]2)c2c1C(c1cc(Br)ccc1F)CC(=O)N2 (stereo not shown) [Compound I2.6] | 29.7% | 32.7% | 31.2% | –
Oc1cc(-c2ccc(F)cc2)nn1-c1nc2ccccc2[nH]1 [Compound I2.12] | 33.6% | 27.1% | 30.4% | –
CCCc1cc(O)n(-c2nc3ccccc3[nH]2)n1 [Compound I2.4] | 31% | 27.8% | 29.4% | –
CCc1ccc(N2CC(c3noc(-c4ccc(C#N)cc4)n3)CC2=O)cc1 (stereo not shown) [Compound I2.9] | 27.8% | 27.2% | 27.5% | –
CCCCn1ccnc1C1CCCN(Cc2ccccn2)C1 (stereo not shown) [Compound I2.1] | – | – | 31.1% | % Inh. Cherry-pick (E234G HYPE; [4]): 29.7%; % Inh. HTS (E234G HYPE; [5]): 32.5%
Clc1ccc(C(c2ccc(Cl)cc2)n2cc[n+](CC(OCc3ccc(Cl)cc3Cl)c3ccc(Cl)cc3Cl)c2)cc1 (stereo not shown) [Compound A1, calmidazolium] | – | – | – | concentration impacting cell viability (HeLa cells): ≤ 1000 nM; effect on HYPE-mediated AMPylation in vitro (HYPE): enhance; activation of WT HYPE autoAMPylation in gel (WT HYPE): bioactive above our DMSO control; effect on IbpA-2 AMPylation of Cdc42 [1]: lack of AMPylation enhancement
Cc1nn(-c2nc3ccccc3[nH]2)c2c1C(c1ccc(F)cc1F)CC(=O)N2 (stereo not shown) [Compound I2.5] | 32.9% | 23.5% | 28.2% | –
Oc1ccc(CN2CCCCC2)c2cccnc12 [Compound I2.11] | – | – | 22.3% | % Inh. Cherry-pick (E234G HYPE; [4]): 24.6%; % Inh. HTS (E234G HYPE; [5]): 19.9%
CN(Cc1ccccn1)C(C(=O)O)c1ccc2c(c1)OCO2 (stereo not shown) [Compound I2.2] | 22.7% | 20.3% | 21.5% | –
CN(Cc1cccc2cnccc12)C(=O)c1cnc(-c2ccccn2)nc1O [Compound I2.3] | – | – | 32.9% | % Inh. Cherry-pick (E234G HYPE; [4]): 30.7%; % Inh. HTS (E234G HYPE; [5]): 35.0%

Source: patent US20240382498A1, “NOVEL INHIBITOR OF HYPE-MEDIATED AMPYLATION” (Purdue Research Foundation, priority 2023, published 2024)
